This note sets out measurements from ChEMBL document CHEMBL4673264, “Discovery of natural TRPA1 activators through pharmacophore-based virtual screening and a biological assay” (Bioorg Med Chem Lett, 2021).

Test [1] has as its target T1, Transient receptor potential cation channel subfamily A member 1 (Homo sapiens, UniProt O75762). The test is described as follows: Agonist activity at TRPA1 (unknown origin) by calcium imaging assay relative to allyl isothiocyanate. Conditions: filed as agonist. On the set-up: concentration or dose not given beside the values.
The target in test [2] is T1, Transient receptor potential cation channel subfamily A member 1. Put plainly: Agonist activity at TRPA1 (unknown origin) by calcium imaging assay.

Structures are written as SMILES.

T1 sequence (O75762 whole entry): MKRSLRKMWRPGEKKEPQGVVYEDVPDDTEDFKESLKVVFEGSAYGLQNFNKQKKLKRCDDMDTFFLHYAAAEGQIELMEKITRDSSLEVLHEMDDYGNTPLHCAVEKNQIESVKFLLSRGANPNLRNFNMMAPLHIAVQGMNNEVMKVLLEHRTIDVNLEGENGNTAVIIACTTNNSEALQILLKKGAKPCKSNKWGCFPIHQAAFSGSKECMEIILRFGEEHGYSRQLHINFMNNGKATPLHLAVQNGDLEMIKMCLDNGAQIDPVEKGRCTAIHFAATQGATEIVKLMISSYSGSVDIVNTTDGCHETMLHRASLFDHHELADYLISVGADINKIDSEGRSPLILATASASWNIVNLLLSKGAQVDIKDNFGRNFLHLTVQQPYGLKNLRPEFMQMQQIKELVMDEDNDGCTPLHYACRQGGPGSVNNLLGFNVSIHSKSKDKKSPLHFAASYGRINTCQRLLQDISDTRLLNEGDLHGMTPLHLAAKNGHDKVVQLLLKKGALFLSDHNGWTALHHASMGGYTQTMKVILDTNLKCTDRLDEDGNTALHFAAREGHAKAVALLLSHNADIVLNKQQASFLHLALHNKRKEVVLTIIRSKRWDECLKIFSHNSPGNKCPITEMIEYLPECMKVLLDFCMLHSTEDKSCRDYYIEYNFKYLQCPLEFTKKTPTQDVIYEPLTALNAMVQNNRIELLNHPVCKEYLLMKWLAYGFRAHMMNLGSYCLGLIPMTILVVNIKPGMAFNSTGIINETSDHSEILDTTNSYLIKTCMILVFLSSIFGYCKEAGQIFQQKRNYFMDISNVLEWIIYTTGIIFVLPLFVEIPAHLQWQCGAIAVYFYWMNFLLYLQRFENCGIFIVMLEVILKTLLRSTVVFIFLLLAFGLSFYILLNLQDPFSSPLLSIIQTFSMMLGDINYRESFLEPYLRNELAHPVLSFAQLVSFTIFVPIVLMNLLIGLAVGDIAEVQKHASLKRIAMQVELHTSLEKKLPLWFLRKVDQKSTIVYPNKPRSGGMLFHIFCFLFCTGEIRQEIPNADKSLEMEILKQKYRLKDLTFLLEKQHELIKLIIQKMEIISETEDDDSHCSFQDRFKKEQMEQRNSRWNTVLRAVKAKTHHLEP

`Cc1ccc(C(C)C)c(O)c1`: the Activity in test [1] was determined as 140%. For the molecule `CCc1ccc(O)c(OC)c1`, the Activity in test [1] came out at 74%. The EC50 in test [2] was found to be 101 µM. For `c1ccc2[nH]ccc2c1` [INDOLE] the same measures were 111% and 75.2 µM. Regarding `COc1cc(O)c(CC=C(C)C)c2c1C(=O)CC(c1ccc(O)cc1)O2` (stereo not drawn), the Activity in test [1] is 90%. Regarding `CCc1ccc(O)c(O)c1`, the Activity in test [1] worked out at 99%. Besides, in test [2], the EC50 was found to be 8.69 µM. In the same order, the values of `Cc1cccc(O)c1O` are 151% and 2.83 µM. With `C/C=C/c1ccc(O)c(OC)c1`, in test [1], the Activity came to 139%. The EC50 in test [2] was 149 µM. In the same order, the values of `Oc1ccccc1Cl` [2-CHLOROPHENOL] are 54% and 501 µM. In the case of `C=CCc1ccc(O)c(OC)c1` [EUGENOL], the Activity in test [1] is 122%. Further, the EC50 in test [2] was determined as 116 µM. As for `COc1cc(C(=O)C(O)CO)ccc1O` (stereo not drawn), in test [1], the Activity stood at 63%. For `Cc1cccc(O)c1C`, in test [1], the Activity is 82%. Besides, in test [2], the EC50 turned out to be 86 µM. For `Cc1ccc(O)c(O)c1` the same measures were 107% and 11.7 µM. In the case of `C=Cc1ccc(O)c(OC)c1`, the Activity in test [1] is 50%. In addition, the EC50 in test [2] amounted to 82.8 µM.

In general, EC50 refers to the concentration at which the effect is half-maximal.
